Test results taken from patent publication US6458746B1, “Plant growth regulating formulations” (BASF Aktiengesellschaft, priority 1998, dated 2002).

Experiments:
Assay type in all cases: in vivo
wheat = assay: Greenhouse shoot length test, wheat; conditions: for Shoot length Wheat [% of control]: 1% formulations in Atlas G 1086; for Shoot length [% of control] Wheat: 2.5 g/ha ai; on Shoot length reduction [activity, relative to control] in wheat: key: 0: no effect; +: low activity; ++: intermediate activity; +++: high activity
Protocol: (§1) Unless otherwise noted, the growth regulating proerties of different compounds in different formulations were determined under greenhouse conditions as follows: […]
(§2) Test plants were grown in plastic pots of approximately 12.5 cm in diameter in a substrate provided with sufficient nutrients and water. At an appropriate shoot length the plants were treated with aqueous sprays of the formulations. The growth-regulating action observed was confirmed at the end of the experiment by measuring the height of the plants. The results obtained were compared with the growth height of the untreated plants.
(§3) Assays with wheat, barley, oat, and rye plants were carried out as described above. The aqueous spray solutions were prepared as follows: […]

[1] = tested on: spring wheat (cv. “Ralle”); assay: Shoot height reduction in spring wheat, synergistic combinations
Protocol: as §1, §2
(§4) To show the synergistic effects of formulations in accordance with the instant invention together with further growth regulating agents, formulations in accordance with the invention were prepared and additional active ingredients added.
Shoot height reduction in spring wheat (cv. “Ralle”) 21 days after treatment with combinations of standard compound S4 and compound VII
Shoot height reduction in spring wheat (cv. “Ralle”) 13 days after treatment with combinations of standard compound S5 and compound VII

rice = assay: Greenhouse shoot length test, rice; conditions: 1% formulations in cyclohexanone: Emulan EL = 4:1; further: key: 0: no effect; +: low activity; ++: intermediate activity; +++: high activity
Protocol: as §1, §2

[2] = tested on: rice seedlings [cvs. “Koshihikari” (tall), “Tan-ginbozu” (dwarf), “Waito C” (dwarf)]; assay: Shoot growth of rice seedlings, combinations with GA3; conditions: for Shoot growth Waito C [% of Control] / Shoot growth Tan-ginbozu [% of Control] / Shoot growth Koshihikari [% of Control]: 7 days after treatment, 1 kg/ha ammonium sulphate added; for Shoot growth Waito C [% of Control]: 100% = 8.7 cm; for Shoot growth Tan-ginbozu [% of Control]: 100% = 9.4 cm; for Shoot growth Koshihikari [% of Control]: 100% = 17.4 cm
Protocol: as §1, §2
The synergizing effect of compound VII on shoot elongation in rice is shown in the results of Example 7.
Enhanced shoot growth of rice seedlings [cvs. “Koshihikari” tall), “Tan-ginbozu” (dwarf), “Waito C” (dwarf)] 7 days after treatment with combinations of compound 6 with GA3^d

oats = assay: Greenhouse shoot length test, oats; conditions: 1% formulations in cyclohexanone: Emulan EL = 4:1; further: key: 0: no effect; +: low activity; ++: intermediate activity; +++: high activity
Protocol: as §1, §2

[3] = tested on: spring barley (cv. “Alexis”); assay: Shoot height reduction in spring barley, synergistic combinations; conditions: 20 days after treatment
Protocol: as §1, §2, §4
Shoot height reduction in spring barley (cv. “Alexis”) 20 days after treatment with combinations of standard compound S2 and compound VII
Shoot height reduction in spring barley (cv. “Alexis”) 20 days after treatment with combinations of standard compound S4 and compound VII

barley = assay: Greenhouse shoot length test, barley; conditions: for Shoot length Barley [% of control]: 1% formulations in Atlas G 1086; for Shoot length [% of control] Barley: 2.5 g/ha ai
Protocol: as §1, §2, §3

rye = assay: Greenhouse shoot length test, rye; conditions: 1% formulations in cyclohexanone: Emulan EL = 4:1; further: key: 0: no effect; +: low activity; ++: intermediate activity; +++: high activity
Protocol: as §1, §2

[4] = tested on: small grains and rice (wheat, barley, oats, rye, rice); assay: Shoot length reduction in small grains and rice (statements across species); conditions: Examples 1 and 2
Protocol: as §1, §2

[5] = 1% formulations in cyclohexanone: Emulan EL = 4:1

exo-16,17-Dihydro-GA5-13-acetate [Comp. VII]
Shoot length reduction [activity, relative to control] in wheat (wheat; [5]): +++ | Shoot length Wheat [% of control] (wheat; 1.6 g/ha ai): 90 % of control | Shoot length [% of control] Wheat (wheat; adjuvant Ethanol 500 g/ha): 99 % of control | Shoot length [% of control] Wheat (wheat; adjuvant R 15 500 g/ha): 73 % of control | Shoot length Wheat [% of control] (wheat; 3.1 g/ha ai): 73 % of control | Shoot length Wheat [% of control] (wheat; 6.3 g/ha ai): 70 % of control | Shoot length Wheat [% of control] (wheat; 12.5 g/ha ai): 64 % of control | % Shoot height reduction Actual ([1]; 3 g/ha a.i., 21 days after treatment): 8% | % Shoot height reduction Actual ([1]; 6 g/ha a.i., 13 days after treatment): 18% | % Shoot height reduction Actual ([1]; 6 g/ha a.i., 21 days after treatment): 21% | Shoot length reduction [activity, relative to control] in rice (rice): +++ | Shoot growth Waito C [% of Control] ([2]; VII 12.5 g/ha ai): 80 % of Control | Shoot growth Tan-ginbozu [% of Control] ([2]; VII 12.5 g/ha ai): 74 % of Control | Shoot growth Koshihikari [% of Control] ([2]; VII 12.5 g/ha ai): 75 % of Control | Shoot growth Waito C [% of Control] ([2]; VII 25.0 g/ha ai): 80 % of Control | Shoot growth Tan-ginbozu [% of Control] ([2]; VII 25.0 g/ha ai): 74 % of Control | Shoot growth Koshihikari [% of Control] ([2]; VII 25.0 g/ha ai): 75 % of Control | Shoot growth Waito C [% of Control] ([2]; VII 50.0 g/ha ai): 80 % of Control | Shoot growth Tan-ginbozu [% of Control] ([2]; VII 50.0 g/ha ai): 74 % of Control | Shoot growth Koshihikari [% of Control] ([2]; VII 50.0 g/ha ai): 75 % of Control | effect on shoot elongation in rice ([2]; applied alone): reduces shoot elongation | effect on the shoot growth-promoting effect of GA3 ([2]; applied in combination with GA3): could clearly be raised | Shoot length reduction [activity, relative to control] in oats (oats): +++ | % Shoot height reduction Actual ([3]; 3 g/ha a.i.): 6% | % Shoot height reduction Actual ([3]; 3 g/ha a.i., S4/VII table): 6% | % Shoot height reduction Actual ([3]; 6 g/ha a.i.): 18% | % Shoot height reduction Actual ([3]; 6 g/ha a.i., S4/VII table): 18% | Shoot length reduction [activity, relative to control] in barley (barley; [5]): +++ | Shoot length Barley [% of control] (barley; 1.6 g/ha ai): 97 % of control | Shoot length [% of control] Barley (barley; adjuvant Ethanol 500 g/ha): 99 % of control | Shoot length [% of control] Barley (barley; adjuvant R 15 500 g/ha): 75 % of control | Shoot length Barley [% of control] (barley; 3.1 g/ha ai): 78 % of control | Shoot length Barley [% of control] (barley; 6.3 g/ha ai): 61 % of control | Shoot length Barley [% of control] (barley; 12.5 g/ha ai): 57 % of control | Shoot length reduction [activity, relative to control] in rye (rye): +++ | shoot length reduction compared with compounds II to V [4]: superior to compounds II to V
